The assay deals with T1, human Glucagon-like peptide 2 receptor (GLP-2R) (Homo sapiens, UniProt O95838).
T1 construct: expressed in transfected cells
T1 sequence (O95838 1-553): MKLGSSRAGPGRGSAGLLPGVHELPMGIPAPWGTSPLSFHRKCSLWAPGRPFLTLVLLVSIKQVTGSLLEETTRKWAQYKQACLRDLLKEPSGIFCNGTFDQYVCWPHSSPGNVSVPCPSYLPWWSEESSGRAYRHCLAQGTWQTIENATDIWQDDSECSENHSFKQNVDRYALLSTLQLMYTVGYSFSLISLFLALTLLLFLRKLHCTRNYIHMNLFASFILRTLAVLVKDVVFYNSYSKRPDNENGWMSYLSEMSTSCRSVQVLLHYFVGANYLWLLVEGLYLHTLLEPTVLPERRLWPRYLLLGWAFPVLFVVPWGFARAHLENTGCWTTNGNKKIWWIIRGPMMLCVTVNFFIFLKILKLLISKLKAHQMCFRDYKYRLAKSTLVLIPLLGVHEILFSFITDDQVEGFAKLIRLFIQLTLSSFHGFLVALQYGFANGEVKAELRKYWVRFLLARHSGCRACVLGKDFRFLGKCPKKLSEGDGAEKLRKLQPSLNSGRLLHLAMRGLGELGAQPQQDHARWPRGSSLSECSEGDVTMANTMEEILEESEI
Briefly: GLP-2R CRE luciferase assay (receptor-mediated cAMP synthesis). It counts as cell-based. The method, then: CREB responsive luciferase stable HEK 293 cell line overexpressing human glucagon receptor (GCGR), glucagon-like peptide 1 receptor (GLP-1R), Glucose-dependent insulinotropic polypeptide receptor (GIPR), or Glucagon-like peptide 2 receptor (GLP-2R) was generated as follows.
HEK293 cells were infected with lent virus encoding firefly luciferase gene under the control of CRE promoter, as described in the manual (Qiagen, Netherlands) and then were selected using 1 μg/mL puromycin (Life technologies, Carlsbad) for 1 week. The survived cells were named as CRE-HEK293, expanded and then transfected with a G418 selective mammalian expression plasmid encoding human GCGR, GLP-1R, GIPR or GLP-2R. In brief, GCGR, GLP-1R, GIPR, or GLP-2R plasmid was transfected into CRE-HEK293 cells using Lipofectamine 2000 and selected with 400 μg/mL geneticin (Life technologies, Carlsbad, Calif.). […]
HEK293-GCGR-CRE, HEK293-GLP-1R-CRE, HEK293-GIPR-CRE, and HEK293-GLP-2R-CRE cells were seeded in a white 384-well plate at a density of 5,000 cells per well and cultured for 24 hours. […] On the next day, 10 μl of Bright-Glo reagent (Promega, Madison, Wis.) were added into each well and firefly luminescence was determined using an Envision multilabel plate reader (PerkinElmer, Waltham, Mass.). EC50 of each peptide was calculated using GraphPad Prism 6 software (GraphPad, San Diego, Calif.).

pEC50: −log10 of the molar value. *1 amine or outer side, *2 acyl side, *3 side chain or, on linkers, in order; H or OH if unused. Where a SMILES comes first, the peptide text is derived from it. Bridges are numbered along the chain shown (N, C = ends). CH2CONH(CH2)4NHCOCH2 = O=C(C[*:1])NCCCCNC(=O)C[*:2]

`CC[C@H](C)[C@@H]1NC(=O)[C@H](Cc2ccccc2)NC(=O)[C@H](CC(=O)O)NC(=O)[C@H](CCCNC(=N)N)NC(=O)[C@H](C)NC(=O)[C@H](C)NC(=O)[C@H](CC(C)C)NC(=O)[C@@H](NC(=O)[C@H](CC(=O)O)NC(=O)[C@H](CC(C)C)NC(=O)[C@@H](NC(=O)[C@@H](NC(=O)[C@H](CC(N)=O)NC(=O)[C@H](CCSC)NC(=O)[C@H](CCC(=O)O)NC(=O)[C@H](CC(=O)O)NC(=O)[C@H](CO)NC(=O)[C@H](Cc2ccccc2)NC(=O)[C@H](CO)NC(=O)CNC(=O)[C@H](CC(=O)O)NC(=O)CNC(=O)[C@@H](N)Cc2c[nH]cn2)[C@@H](C)O)[C@@H](C)CC)CSCC(=O)NCCCCNC(=O)CSC[C@@H](C(=O)N[C@@H](Cc2c[nH]c3ccccc23)C(=O)N[C@@H](CC(C)C)C(=O)N[C@H](C(=O)N[C@@H](CCC(N)=O)C(=O)N[C@H](C(=O)N[C@@H](CCCCN)C(=O)N[C@H](C(=O)N[C@H](C(=O)N[C@@H](CC(=O)O)C(N)=O)[C@@H](C)O)[C@@H](C)CC)[C@@H](C)O)[C@@H](C)CC)NC1=O` [mTA52] (H-HGDGSFSDEMNTILDCLAARDFICWLIQTKITD-NH2; linker 16-24 via CH2CONH(CH2)4NHCOCH2) showed a negative-log EC50 (pEC50) of 8.25.

The values are drawn from patent publication US10010589B2, “Modified therapeutic agents, stapled peptide lipid conjugates, and compositions thereof” (priority 2013, dated 2018).
